The source of these data is patent US20240245691A1 (Sitryx Therapeutics Limited, priority 2021, published 2024).

Series [1] relates to IL-1β. Description: THP-1 AlphaLISA IL-1β cytokine assay (differentiated THP-1 cells). In kind it is cell-based. The conditions noted are these: Homo sapiens. The essentials:
(§1)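 PMA-differentiated THP-1 cells were preincubated 30 min with compound, stimulated with LPS for 24 h, then nigericin for 1 h, all at 37 °C. Supernatant IL-1β and IL-6 were quantified by AlphaLISA. % inhibition is normalised to +LPS and −LPS controls per cytokine.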
A general note: Bead proximity is the source of the signal in Alpha formats.

In series [2] the test system is IL-6. In words: THP-1 AlphaLISA IL-6 cytokine assay (differentiated THP-1 cells). In kind it is cell-based. As to conditions: Homo sapiens. The method, boiled down: as §1
Series [3] concerns NRF2 (nuclear factor erythroid 2-related factor 2). In words: NRF2 +/-GSH activation assay (DiscoverX PathHunter NRF2 translocation kit, U2OS cells). The format is cell-based. The conditions noted are these: Homo sapiens.
Series [4] can be described thus: Hepatocyte stability assay, human. In kind it is in vitro ADME. The conditions noted are these: human, hepatocytes, T½. The method, boiled down: (§2)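 Cryopreserved hepatocytes at 0.5×10^6 cells/mL in Leibovitz buffer, 37 °C, with 10 μM compound (0.1% DMSO), duplicate. Samples at 0-60 min, acetonitrile quench, LC-MS/MS; intrinsic clearance and half-life from ln % remaining versus time, with buffer-only incubations as control.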

Series [5] has as its system cryo-preserved hepatocytes. Description: Hepatocyte stability assay, human. In kind it is in vitro ADME. As to conditions: human, hepatocytes. The method, boiled down: as §2
Series [6] in a line: Hepatocyte stability assay, mouse. As to conditions: mouse, hepatocytes, T½. The format is in vitro ADME. The method, boiled down: as §2
For series [7], the system named is cryo-preserved hepatocytes. In words: Hepatocyte stability assay, mouse. As to conditions: mouse, hepatocytes. In kind it is in vitro ADME. The essentials: as §2
The mark [8] stands for this setting: THP-1, differentiated THP-1 cells, LPS 24 hr then Nigericin 1 hour, read-out: IL-1β (IC50).
Where [9] appears, read: THP-1, differentiated THP-1 cells, LPS 24 hr then Nigericin 1 hour, read-out: IL-6 (IC50).
Where [10] appears, read: U2OS, +GSH, normalised to dimethyl fumarate high control, read-out: NRF2 activation Emax, +GSH.
Where [11] appears, read: U2OS, −GSH, normalised to dimethyl fumarate high control, read-out: NRF2 activation Emax, −GSH.
[12] abbreviates: +GSH, U2OS PathHunter cells, 6 hours, read-out: NRF2 activation EC50, +GSH.
The mark [13] stands for this setting: −GSH, U2OS PathHunter cells, 6 hours, read-out: NRF2 activation EC50, −GSH.

Where two headings read alike, the source gives them in different places.

Broadly, the IC50 is the concentration at which inhibition is half-maximal. By EC50 is commonly meant the midpoint of the concentration-response curve. The Emax is the greatest response seen or fitted, relative to the assay's reference. Broadly, the half-life is the time in which the quantity being followed falls by half.

On to `C/C=C(\CC(=O)N[C@@H](C)c1ccc(C(F)(F)F)cc1)C(=O)O` [Example 42, (S,E)-2-(2-oxo-2-((1-(4-(trifluoromethyl)phenyl)ethyl)amino)ethyl)but-2-enoic acid], for which the IC50 in series [1] (THP-1, read-out: IL-1β (IC50)) is 2.3 µM; in series [2] (THP-1, read-out: IL-6 (IC50)), greater than 68.1 µM. Further, the EC50 in series [3] (U2OS, 6 h, read-out: NRF2 activation EC50, +GSH) is greater than 100 µM; in series [3] (U2OS, 6 h, read-out: NRF2 activation EC50, −GSH), greater than 100 µM. Moreover, the Emax in series [3] (U2OS, read-out: NRF2 activation Emax, +GSH) was 3%; in series [3] (U2OS, read-out: NRF2 activation Emax, −GSH), 8%. Further, the half-life at 10 μM was greater than 460 min in series [4] and 323 min in series [6]. The Clint in series [5] is given as less than 3 μL min^−1 10^−6 cells; in series [7] it was 3 μL min^−1 10^−6 cells.

As for `C=C(CC(=O)N[C@@H](C)c1ccc(C(F)(F)F)cn1)C(=O)OC1CN(S(C)(=O)=O)C1` [Example 37, 1-(methylsulfonyl)azetidin-3-yl (S)-2-methylene-4-oxo-4-((1-(5-(trifluoromethyl)pyridin-2-yl)ethyl)amino)butanoate], the IC50 in series [1] (setting [8]) amounted to 1.7 µM; in series [2] (setting [9]) it was 7.29 µM. Further, the figures for the Emax in series [3] (setting [10]) and in series [3] (setting [11]) were 11% and 90%, respectively. Besides, the EC50 in series [3] (setting [12]) was greater than 100 µM; in series [3] (setting [13]) it was 15.8 µM. For the same compound, the half-life at 10 μM in series [4] is 25 min; in series [6] it was 12 min. Besides, the Clint is reported as 50 μL min^−1 10^−6 cells in series [5] and 104 μL min^−1 10^−6 cells in series [7].

Consider `C=C(CC(=O)N[C@@H](C)c1ccc(C(F)(F)F)cc1)C(=O)OC1CCN(S(C)(=O)=O)CC1` [Example 22, 1-(methylsulfonyl)piperidin-4-yl (S)-2-methylene-4-oxo-4-((1-(4-(trifluoromethyl)phenyl)ethyl)amino)butanoate], for which the half-inhibitory concentration (IC50) in series [1] (setting [8]) amounted to 7.1 µM; in series [2] (setting [9]), 3.6 µM. In addition, the Emax in series [3] (setting [10]) came out at 8%; in series [3] (setting [11]) it was 3%. The EC50 in series [3] (setting [12]) and in series [3] (setting [13]) was greater than 100 µM in each case. The values for the half-life at 10 μM in series [4] and in series [6] were 37 min and 13 min, respectively. Besides, the Clint in series [5] amounted to 49 μL min^−1 10^−6 cells; in series [7] it was 99 μL min^−1 10^−6 cells.

With `C=C(CC(=O)N[C@@H](C)c1ccc(C(F)(F)F)cc1)C(=O)OC1CCN(C)CC1` [Example 24, 1-methylpiperidin-4-yl (S)-2-methylene-4-oxo-4-((1-(4-(trifluoromethyl)phenyl)ethyl)amino)butanoate], the IC50 was determined as 4.7 µM in series [1] (setting [8]) and 4 µM in series [2] (setting [9]). The Emax in series [3] (setting [10]) stood at 30%; in series [3] (setting [11]), 78%. The EC50 is greater than 100 µM in series [3] (setting [12]) and 9.05 µM in series [3] (setting [13]). Besides, the half-life at 10 μM in series [4] came to 65 min; in series [6], 8 min. Also, the Clint in series [5] is on record as 23 μL min^−1 10^−6 cells; in series [7] it was 199 μL min^−1 10^−6 cells.

As for `C=C(CC(=O)N[C@@H](C)c1ccc(C(F)(F)F)cc1)C(=O)OCCN1CCOCC1` [Example 29], the 50% inhibitory concentration (IC50) was found to be 10.3 µM in series [1] (setting [8]) and 6.7 µM in series [2] (setting [9]). The Emax in series [3] (setting [10]) was 22%; in series [3] (setting [11]), 86%. Besides, the figures for the EC50 in series [3] (setting [12]) and in series [3] (setting [13]) were greater than 100 µM and 22.7 µM, respectively. For the same compound, the half-life at 10 μM in series [4] stood at 38 min; in series [6], 13 min. Besides, the Clint in series [5] was 39 μL min^−1 10^−6 cells; in series [7], 130 μL min^−1 10^−6 cells.

For the compound `C=C(CC(=O)N[C@@H](C)c1ccc(C(F)(F)F)cc1)c1nnn[nH]1` [Example 57, (S)-3-(1H-tetrazol-5-yl)-N-(1-(4-(trifluoromethyl)phenyl)ethyl)but-3-enamide], the IC50 in series [1] (setting [8]) is 1.9 µM; in series [2] (setting [9]), greater than 10 µM. The Emax in series [3] (setting [10]) turned out to be 48.5%; in series [3] (setting [11]), 55%. The EC50 in series [3] (setting [12]) was greater than 100 µM; in series [3] (setting [13]) it was 46.8 µM. In addition, the half-life at 10 μM in series [4] and in series [6] was greater than 460 min each time. Besides, the Clint in series [5] and in series [7] was less than 3 μL min^−1 10^−6 cells in each case.

In the case of `C=C(CC(=O)N[C@@H](C)c1ccc(C(F)(F)F)cc1)C(=O)OC1CS(=O)(=O)C1` [Example 27, 1,1-dioxidothietan-3-yl (S)-2-methylene-4-oxo-4-((1-(4-(trifluoromethyl)phenyl)ethyl)amino)butanoate], the IC50 turned out to be 3.3 µM in series [1] (setting [8]) and 1.4 µM in series [2] (setting [9]). The Emax in series [3] (setting [10]) is 10%; in series [3] (setting [11]) it was 84%. Moreover, the figures for the EC50 in series [3] (setting [12]) and in series [3] (setting [13]) were greater than 100 µM and 6.3 µM, respectively. For the same compound, the half-life at 10 μM in series [4] was 12 min; in series [6], 6 min. Also, the Clint in series [5] is given as 126 μL min^−1 10^−6 cells; in series [7], 215 μL min^−1 10^−6 cells.

For `C=C(CC(=O)NC1(c2ccc(C(F)(F)F)cc2)COC1)C(=O)O` [Example 13, 2-methylene-4-oxo-4-((3-(4-(trifluoromethyl)phenyl)oxetan-3-yl)amino)butanoic acid], the IC50 is 19.5 µM in series [1] (setting [8]) and greater than 31.6 µM in series [2] (setting [9]). In addition, the half-life at 10 μM was 430 min in series [4] and greater than 460 min in series [6]. The figures for the Clint in series [5] and in series [7] were 3 μL min^−1 10^−6 cells and less than 3 μL min^−1 10^−6 cells, respectively.

In the case of `C=C(CC(=O)N[C@@H](C)c1ccc(S(F)(F)(F)(F)F)cc1)C(=O)O` [Example 56, (S)-2-methylene-4-oxo-4-((1-(4-(pentafluoro-A6-sulfaneyl)phenyl)ethyl)amino)butanoic acid], the IC50 was 3.3 µM in series [1] (setting [8]) and greater than 100 µM in series [2] (setting [9]). The half-life at 10 μM was greater than 460 min in series [4] and 166 min in series [6]. Moreover, the results for the Clint in series [5] and in series [7] were less than 3 μL min^−1 10^−6 cells and 11 μL min^−1 10^−6 cells, respectively.

Regarding `C=C(CC(=O)NC1(c2ccc(C(F)(F)F)cc2)CC1)C(=O)O` [Example 11, 2-methylene-4-oxo-4-((1-(4-(trifluoromethyl)phenyl)cyclopropyl)amino)butanoic acid], the IC50 in series [1] (setting [8]) is 8.3 µM; in series [2] (setting [9]), greater than 100 µM. Further, the half-life at 10 μM in series [4] and in series [6] was greater than 460 min throughout. Besides, the Clint in series [5] and in series [7] was less than 3 μL min^−1 10^−6 cells in each case.

`C[C@H](NC(=O)C/C(=C\c1ccccc1)C(=O)O)c1ccc(C(F)(F)F)cc1` [Example 47, (S,E)-2-benzylidene-4-oxo-4-((1-(4-(trifluoromethyl)phenyl)ethyl)amino)butanoic acid]: the IC50 in series [1] (setting [8]) and in series [2] (setting [9]) was greater than 100 µM each time. For the same compound, the figures for the half-life at 10 μM in series [4] and in series [6] were greater than 460 min and 132 min, respectively. In addition, the Clint in series [5] was less than 3 μL min^−1 10^−6 cells; in series [7] it was 12 μL min^−1 10^−6 cells.

For the compound `C=C(CC(=O)NC1(c2ccc(C(F)(F)F)cc2)CCCC1)C(=O)O` [Example 14, 2-methylene-4-oxo-4-((1-(4-(trifluoromethyl)phenyl)cyclopentyl)amino) butanoic acid], the results for the half-maximal inhibitory concentration (IC50) in series [1] (setting [8]) and in series [2] (setting [9]) were 58.3 µM and greater than 100 µM, respectively. In addition, the half-life at 10 μM was greater than 460 min in series [4] and 389 min in series [6]. The figures for the Clint in series [5] and in series [7] were less than 3 μL min^−1 10^−6 cells and 4 μL min^−1 10^−6 cells, respectively.

Consider `C=C(CC(=O)N[C@@H](C)c1ccc(C(F)(F)F)cn1)C(=O)OC1CS(=O)(=O)C1` [Example 33, 1,1-dioxidothietan-3-yl (S)-2-methylene-4-oxo-4-((1-(5-(trifluoromethyl)pyridin-2-yl)ethyl)amino)butanoate], for which the IC50 in series [1] (setting [8]) worked out at 1.82 µM; in series [2] (setting [9]), 3.64 µM. Besides, the half-life at 10 μM in series [4] is 11 min; in series [6], 10 min. For the same compound, the Clint was 151 μL min^−1 10^−6 cells in series [5] and 205 μL min^−1 10^−6 cells in series [7].

Turning to `C=C(CC(=O)N[C@@H](C)c1ccc(C(F)(F)F)cc1)C(=O)OC1(C)COC1` [Example 28, 3-methyloxetan-3-yl (S)-2-methylene-4-oxo-4-((1-(4-(trifluoromethyl)phenyl)ethyl)amino)butanoate], the IC50 is 10.5 µM in series [1] (THP-1, read-out: IL-1β (IC50)) and 5.6 µM in series [2] (THP-1, read-out: IL-6 (IC50)). Further, the values for the half-life at 10 μM in series [4] and in series [6] were 18 min and less than 3 min, respectively. Moreover, the Clint in series [5] is reported as 80 μL min^−1 10^−6 cells; in series [7] it was greater than 460 μL min^−1 10^−6 cells.
